Test results: patent US12151010B2, “Skin lightening agent” (POLA CHEMICAL INDUSTRIES, INC., priority 2018, dated 2024)

System: pigmentation of UV-irradiated test sites on the medial upper arms of panelists
Experiment: Test of skin whitening effect (pigmentation ameliorating effect), skin lightness L* by color difference meter after UV irradiation
Assay type: in vivo, human (panelists)
Settings: for Pigmentation amelioration Rating: 25-day application; for Pigmentation amelioration ΔL*: 50 μL twice a day for 25 days after 3x 1 MED UV, L* minus Comparative Example site
Description: The cosmetics according to Table 1 (Examples 1 to 9, Comparative Example, and Reference Example) were prepared respectively in a conventional manner. With regard to each of the prepared cosmetics, the skin whitening effect (pigmentation ameliorating effect) was evaluated by the following method. That is, total 8 test sites in a size of 0.5 cm×0.5 cm were established on the medial parts of the left and right upper arms of each of 10 panelists who participated voluntarily. Each established site was irradiated with a minimum erythema dose (1 MED) of UV light once a day for three consecutive days, namely totally three times. At the end of the UV irradiation on the first day of the test (at the end of the first irradiation) and thereafter each 50 μL of the cosmetics of Comparative Example and any one of Examples 1 to 9 or Reference Example were applied respectively to one site and the remaining seven sites twice a day for 25 consecutive days. The skin lightness (L* value) of each test site was measured 24 hours after the end of the 25-day application period with a color difference meter (CR-300, Konica Minolta Holdings, Inc.). By subtracting the L* value of the site to which the cosmetic of Comparative Example was applied from each L* value of the sites to which the cosmetic of Example or Reference Example was applied, the difference in skin lightness (ΔL* value) was calculated. Since the L* value decreases, as the degree of pigmentation becomes severer, it may be so judged that pigmentation is ameliorated, when the ΔL* value is higher.

[1] = content 0.01% by mass in Table 1 cosmetic
[2] = content 1% by mass in Table 1 cosmetic
[3] = content 3% by mass in Table 1 cosmetic

| SMILES | Pigmentation amelioration Rating [1] | Pigmentation amelioration ΔL* [1] | Pigmentation amelioration Rating [2] | Pigmentation amelioration ΔL* [2] | Pigmentation amelioration Rating [3] | Pigmentation amelioration ΔL* [3] |
| --- | --- | --- | --- | --- | --- | --- |
| NCC1CCC(C(=O)c2ccc(CCC(=O)O)cc2)CC1 (centres unmarked) [Compound 1, 3-[p-(4-aminomethylcyclohexylcarbonyl)phenyl]propionic acid] | A (0.4 < ΔL* < 0.5) | 0.47 | AA (ΔL* ≥ 0.5%) | 0.50 | AA (ΔL* ≥ 0.5%) | 0.52 |
| CCCCCCOC(=O)CCc1ccc(C(=O)C2CCC(CN)CC2)cc1 (centres unmarked) [Compound 2, 3-[p-(4-aminomethylcyclohexylcarbonyl)phenyl]propionate hexyl] |  |  | A (0.4 < ΔL* < 0.5) | 0.43 |  |  |
| NCC1CCC(C(=O)c2ccc(CCCO)cc2)CC1 (centres unmarked) [Compound 3, 3-[p-(4-aminomethylcyclohexylcarbonyl)phenyl]propanol] | A (0.4 < ΔL* < 0.5) | 0.45 | A (0.4 < ΔL* < 0.5) | 0.48 |  |  |
| CCCCCC(=O)OCCCc1ccc(C(=O)C2CCC(CN)CC2)cc1 (centres unmarked) [Compound 4, 3-[p-(4-aminomethylcyclohexylcarbonyl)phenyl]propyl hexanoate] |  |  | A (0.4 < ΔL* < 0.5) | 0.45 |  |  |
| CCCCCC(=O)OCC(C)Cc1ccc(C(=O)C2CCC(CN)CC2)cc1 (centres unmarked) [Compound 5, 2-methyl-3-[p-(4-aminomethylcyclohexylcarbonyl)phenyl]propyl hexanoate] |  |  | A (0.4 < ΔL* < 0.5) | 0.42 |  |  |
| Cl.NCC1CCC(C(=O)c2ccc(CCC(=O)O)cc2)CC1 (centres unmarked) [Hydrochloride of Compound 1] |  |  | AA (ΔL* ≥ 0.5%) | 0.52 |  |  |
| NC[C@H]1CC[C@H](C(=O)O)CC1 [Tranexamic acid, reference compound] |  |  | B (ΔL* ≤ 0.4) | 0.40 |  |  |
